# Results published in patent EP0178388A1, “Quinolinecarboxylic acid derivatives” (KYORIN PHARMACEUTICAL CO., LTD., priority 1984, dated 1986).
# Structures can show the parent of a compound that is named as a salt. Where two headings read alike, the source gives them in different places.
# Key:
# [1] = system: Bacillus subtilis PCI 219; experiment: In vitro antibacterial activity, MIC (standard strain); format: cell-based; conditions: PCI219
# [2] = system: Escherichia coli NIHJ JC-2; experiment: as above; format: cell-based; conditions: NIHJJC2, Escherichia coli NIHJ JC-2, 10^6 cells/ml
# [3] = system: Proteus vulgaris IFO 3167; experiment: as above; format: cell-based; conditions: IFO3167
# P. morganii IID 602 = experiment: as above; format: cell-based; conditions: Morganella morganii, IID602
# [4] = system: Klebsiella pneumoniae I-220S; experiment: as above; format: cell-based
# K. pneumoniae KY(GN)6445 = experiment: as above; format: cell-based; conditions: Klebsiella pneumoniae
# [5] = system: Citrobacter freundii IID 976; experiment: as above; format: cell-based; conditions: IID976
# Shigella sonnei IID 969 = experiment: as above; format: cell-based; conditions: IID969, Shigella sonnei IID 969, 10^6 cells/ml
# Protocol: (§1) The in vitro antibacterial activity has been investigated, the minimun inhibitory concentration (MIC) was determined in accordance with the method recommended by Japan Society of Chemotherapy.
# [6] = system: Salmonella enteritidis IID 604; experiment: as above; format: cell-based; conditions: Salmonella enterica
# [7] = system: Pseudomonas aeruginosa V-1; experiment: as above; format: cell-based; conditions: V1
# [8] = system: Yersinia enterocolitica IID 981; experiment: as above; format: cell-based; conditions: IID981
# [9] = system: Acinetobacter anitratus IID 876; experiment: as above; format: cell-based; conditions: Acinetobacter calcoaceticus, IID876
# [10] = system: Bacteroides fragilis GM 7000; experiment: as above; format: cell-based; conditions: GM7000
# B. fragilis 0558 = experiment: as above; format: cell-based; conditions: Bacteroides fragilis, 0558
# B. fragilis 25285 = experiment: as above; format: cell-based; conditions: Bacteroides fragilis, 25285
# [11] = system: B. thetaiotaomicron (0661); experiment: as above; format: cell-based; conditions: Bacteroides thetaiotaomicron
# C. ramosum = experiment: as above; format: cell-based; conditions: Thomasclavelia ramosa
# E. coli ML4707 [12] = experiment: In vivo antibacterial activity against systemic infection in mice;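 also: ED50 in mg/kg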; conditions: Escherichia coli, ML4707, po, 1 h, E. coli ML4707, mice (ICR-S), intraperitoneal infection, oral at 1 hour after infection
# Protocol: (§2) Experiment 2 In vivo antibacterial activity against systemic infection in mice (ICR-S)
# (§3) The infections were produced by intraperitoneal infection of a suspension of the bacterial culture corresponding to the germ studied. The product was administered orally at 1 hour after the infection. The 50% effective dose (ED50) which protects 50% of the animals from death caused by the infection was determined from the relation between dosage and survival rate.
# P. aeruginosa IID 1210 = experiment: as above; design: species or system mice (ICR-S); conditions: Pseudomonas aeruginosa, IID1210, po, 1 h;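 also: ED50 in mg/kg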
# Protocol: as §2, §3
# S. aureus Smith = experiment: as above; design: species or system mice (ICR-S); conditions: Staphylococcus aureus, po, 1 h;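 also: ED50 in mg/kg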
# Protocol: as §2, §3
# S. pneumoniae S-4288 = experiment: as above; design: species or system mice (ICR-S); conditions: Streptococcus pneumoniae, S4288, po, 1 h
# Protocol: as §2, §3
# [13] = system: Staphylococcus aureus 209 P; experiment: In vitro antibacterial activity, MIC (standard strain); format: cell-based; conditions: 10^6 cells/ml, read-out: MIC
# [14] = system: S. aureus IID 670 (Terajima); experiment: as above; format: cell-based; conditions: Staphylococcus aureus, IID670, 10^6 cells/ml
# S. epidermidis IID 866 = experiment: as above; format: cell-based; conditions: Staphylococcus epidermidis, IID866, S. epidermidis IID 866, 10^6 cells/ml
# E. coli ATCC 10536 = experiment: as above; format: cell-based; conditions: Escherichia coli, ATCC10536; E. coli ATCC 10536, 10^6 cells/ml, standard strain; read-out: MIC
# P. mirabilis IID 994 = experiment: as above; format: cell-based; conditions: Proteus mirabilis, IID994, P. mirabilis IID 994, 10^6 cells/ml
# [15] = system: Enterobacter cloacae IID 977; experiment: as above; format: cell-based; conditions: IID977, Enterobacter cloacae IID 977, 10^6 cells/ml
# [16] = system: Serratia marcescens IID 618; experiment: as above; format: cell-based; conditions: IID618, Serratia marcescens IID 618, 10^6 cells/ml, read-out: MIC
# P. aeruginosa IFO 12689 = experiment: as above; format: cell-based; conditions: Pseudomonas aeruginosa
# [17] = system: Alcaligenes faecalis 0114002; experiment: as above; format: cell-based; conditions: Alcaligenes faecalis 0114002, 10^6 cells/ml
# B. distasonis 8503 = experiment: as above; format: cell-based; conditions: Parabacteroides distasonis, B. distasonis 8503, 10^6 cells/ml
# [18] = system: F. varium KYA (ATCC) 8501; experiment: as above; format: cell-based; conditions: Fusobacterium varium, F. varium KYA (ATCC) 8501, 10^6 cells/ml
# [19] = system: Clostridium difficile I-E; experiment: as above; format: cell-based; conditions: Clostridioides difficile, 10^6 cells/ml
# [20] = system: C. perfringens KYA (ATCC) 13123; experiment: microbe, parasite or virus in culture; format: cell-based; conditions: Clostridium perfringens
# [21] = system: Peptostreptococcus anaerobius KYA 27337; experiment: In vitro antibacterial activity, MIC (standard strain); format: cell-based; conditions: KYA27337, Peptostreptococcus anaerobius KYA 27337, 10^6 cells/ml
# Pst. micros UPI 5464-1 = experiment: as above; format: cell-based; conditions: Parvimonas micra, UPI54641, Pst. micros UPI 5464-1, 10^6 cells/ml
# [22] = system: Veillonella parvula KYA 10790; experiment: as above; format: cell-based; conditions: KYA10790, Veillonella parvula KYA 10790, 10^6 cells/ml
# E. coli ML4707 [23] = experiment: MIC against the infecting strain (Table 2); format: cell-based; conditions: Escherichia coli; E. coli ML4707 (Table 2, parts 1 and 2)
# Protocol: as §1
# [24] = system: Streptococcus pyogenes S-8; experiment: In vitro antibacterial activity, MIC (standard strain); format: cell-based; conditions: S8, Streptococcus pyogenes S-8, 10^6 cells/ml
# S. pyogenes IID 692 = experiment: as above; format: cell-based; conditions: Streptococcus pyogenes, IID692, S. pyogenes IID 692, 10^6 cells/ml
# S. pneumoniae IID 552 = experiment: as above; format: cell-based; conditions: Streptococcus pneumoniae, IID552, S. pneumoniae IID 552, 10^6 cells/ml
# S. faecalis IID 682 = experiment: as above; format: cell-based; conditions: Enterococcus faecalis, IID682, S. faecalis IID 682, 10^6 cells/ml
# [25] = Bacillus subtilis PCI 219, 10^6 cells/ml, standard strain, read-out: MIC
# [26] = Proteus vulgaris IFO 3167, 10^6 cells/ml, standard strain, read-out: MIC
# [27] = P. morganii IID 602, 10^6 cells/ml, standard strain, read-out: MIC
# [28] = K. pneumoniae KY(GN)6445, 10^6 cells/ml, standard strain, read-out: MIC
# [29] = Citrobacter freundii IID 976, 10^6 cells/ml, standard strain, read-out: MIC
# [30] = Salmonella enteritidis IID 604, 10^6 cells/ml, standard strain, read-out: MIC
# [31] = Pseudomonas aeruginosa V-1, 10^6 cells/ml, standard strain, read-out: MIC
# [32] = Yersinia enterocolitica IID 981, 10^6 cells/ml, standard strain, read-out: MIC
# [33] = Acinetobacter anitratus IID 876, 10^6 cells/ml, standard strain, read-out: MIC
Compound,MIC [2],MIC (Shigella sonnei IID 969),MIC (B. fragilis 0558),MIC (B. fragilis 25285),"MIC [1, 25]",MIC [13],MIC [14],MIC (S. epidermidis IID 866),MIC (E. coli ATCC 10536),"MIC [3, 26]",MIC (P. mirabilis IID 994),MIC (P. morganii IID 602; [27]),MIC (K. pneumoniae KY(GN)6445; [28]),MIC [15],"MIC [5, 29]",MIC [16],"MIC [6, 30]","MIC [7, 31]","MIC [8, 32]","MIC [9, 33]",also measured
"O=C(O)c1cn(C2CC2)c2cc(N3CCNCC3)c(F)cc2c1=O [CFLX, 1-Cyclopropyl-6-fluoro-1,4-dihydro-4-oxo-7-(1-piperazinyl)-quinoline-3-carboxylic acid, reference compound]",≤ 0.006 µg/mL,≤ 0.006 µg/mL,3.13 µg/mL,3.13 µg/mL,–,–,–,–,–,–,–,–,–,–,–,–,–,–,–,–,MIC ([1]; Bacillus subtilis): 0.05 µg/mL; MIC ([3]; Proteus vulgaris): ≤ 0.006 µg/mL; MIC (P. morganii IID 602): 0.05 µg/mL; MIC ([4]; Klebsiella pneumoniae): 0.05 µg/mL; MIC (K. pneumoniae KY(GN)6445): 0.025 µg/mL; MIC ([5]; Citrobacter freundii): ≤ 0.006 µg/mL; MIC [6]: 0.025 µg/mL; MIC ([7]; Pseudomonas aeruginosa): 0.2 µg/mL; MIC ([8]; Yersinia enterocolitica): 0.05 µg/mL; MIC [9]: 0.025 µg/mL; MIC ([10]; Bacteroides fragilis): 3.13 µg/mL; MIC [11]: 3.13 µg/mL; MIC (C. ramosum): 3.13 µg/mL; ED50 (E. coli ML4707 [12]; challenge dose 6.0 x 10^6 cfu/mouse (part 1)): 0.67 mg/kg; ED50 (E. coli ML4707 [12]; challenge dose 8.3 x 10^6 cfu/mouse (part 2)): 0.75 mg/kg; ED50 (P. aeruginosa IID 1210): 8 mg/kg; ED50 (S. aureus Smith): 12.8 mg/kg; ED50 (S. pneumoniae S-4288): > 100 mg/kg
"CC1CN(c2c(F)cc3c(=O)c(C(=O)O)cn(C4CC4)c3c2F)CC(C)N1 (stereo not drawn) [Example 4, 1-Cyclopropyl-6,8-difluoro-1,4-dihydro-7-(3,5-dimethyl-l-piperazinyl)-4-oxoquinoline-3-carboxylic acid]",≤ 0.025 µg/mL,0.0125 µg/mL,1.56 µg/mL,1.56 µg/mL,0.05 µg/mL,0.2 µg/mL,0.2 µg/mL,0.39 µg/mL,≤ 0.006 µg/mL,0.025 µg/mL,0.1 µg/mL,0.1 µg/mL,0.025 µg/mL,0.05 µg/mL,0.025 µg/mL,0.1 µg/mL,0.05 µg/mL,0.39 µg/mL,0.1 µg/mL,0.006 µg/mL,"MIC (P. aeruginosa IFO 12689; IFO12689): 1.56 µg/mL; MIC [17]: 0.2 µg/mL; MIC ([10]; Bacteroides fragilis GM 7000, 10^6 cells/ml, standard strain, read-out: MIC): 3.13 µg/mL; MIC (B. distasonis 8503): 3.13 µg/mL; MIC ([11]; B. thetaiotaomicron (0661), 10^6 cells/ml, standard strain, read-out: MIC): 6.25 µg/mL; MIC [18]: 12.5 µg/mL; MIC [19]: 12.5 µg/mL; MIC [20]: 1.56 µg/mL; MIC [21]: 3.13 µg/mL; MIC (Pst. micros UPI 5464-1): 0.39 µg/mL; MIC [22]: 0.39 µg/mL; MIC (E. coli ML4707 [23]): 0.0125 µg/mL; ED50 (E. coli ML4707 [12]; challenge dose 6.0 x 10^6 cfu/mouse (part 1), read-out: ED50): 0.13 mg/kg"
"CC1CN(c2c(F)cc3c(=O)c(C(=O)O)cn(C4CC4)c3c2Cl)CC(C)N1 (centres unmarked) [Example 6, 8-Chloro-1-cyclopropyl-6-fluoro-1,4-dihydro-7-(3,5-dimethyl-1-piperazinyl)-4-oxoquinoline-3-carboxylic acid and its hydrochloride]",0.05 µg/mL,0.05 µg/mL,–,–,0.05 µg/mL,0.2 µg/mL,0.2 µg/mL,0.2 µg/mL,0.025 µg/mL,0.05 µg/mL,0.1 µg/mL,0.2 µg/mL,0.05 µg/mL,0.2 µg/mL,0.1 µg/mL,0.2 µg/mL,0.1 µg/mL,1.56 µg/mL,0.2 µg/mL,0.1 µg/mL,"MIC [24]: 0.39 µg/mL; MIC (S. pyogenes IID 692): 0.78 µg/mL; MIC (S. pneumoniae IID 552): 0.78 µg/mL; MIC (S. faecalis IID 682): 0.78 µg/mL; MIC ([4]; I220S, Klebsiella pneumoniae I-220S, 10^6 cells/ml, standard strain, read-out: MIC): 0.2 µg/mL; MIC (P. aeruginosa IFO 12689; IFO12689, P. aeruginosa IFO 12689, 10^6 cells/ml, standard strain, read-out: MIC): 3.13 µg/mL; MIC [17]: 0.78 µg/mL"
